Measurements reported in ChEMBL document CHEMBL1150805, “New cytotoxic isomalabaricane triterpenes from the sponge Jaspis species” (J Nat Prod, 2001).

Legend:
[1] = system: Malme-3M; assay: Antiproliferative activity against human MALME-3M cells; assay type: functional, cell-based
[2] = system: MOLT-4; assay: Antiproliferative activity against human MOLT4 cells; assay type: functional, cell-based

| IC50 [2] | Structure (SMILES) | IC50 [1] |
| --- | --- | --- |
| 19.5 µg/mL | CC(=O)O[C@@H](CC=C(C)C)/C(C)=C/C=C/C(C)=C1\C(=O)C[C@H]2[C@@]3(C)CC[C@H](OC(C)=O)[C@](C)(CO)[C@@H]3CC[C@]12C (mixture of isomers) | 2.27 µg/mL |
| 1.62 µg/mL | CC(=O)O[C@H]1CC[C@@]2(C)[C@@H](CC[C@]3(C)/C(=C(C)/C=C/C=C(\C)[C@@H](O)CC=C(C)C)C(=O)C[C@@H]23)[C@@]1(C)CO (mixture of isomers) | 0.11 µg/mL |
| 4.11 µg/mL | CC(=O)O[C@@H](CC=C(C)C)/C(C)=C/C=C/C(C)=C1\C(=O)C[C@H]2[C@@]3(C)CC[C@@H](O)[C@](C)(CO)[C@@H]3CC[C@]12C (mixture of isomers) | 0.23 µg/mL |
| 16.6 µg/mL | CC(=O)O[C@@H](CC=C(C)C)/C(C)=C/C=C/C(C)=C1\C(=O)C[C@H]2[C@@]3(C)CC[C@@H](OC(C)=O)[C@](C)(CO)[C@@H]3CC[C@]12C (mixture of isomers) | 1.2 µg/mL |
